Measured values reported in PubChem BioAssay (NCI).
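The compound was tested at five concentrations on cells cultured in 96-well plates, with a 48-hour exposure period. Here, GI50 denotes the concentration required for 50% inhibition of growth. TGI: total growth inhibition.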

Columns and labels:
Test in all cases: NCI tumour cell line growth inhibition, 48 h
786-0 renal = tested on: 786-0 renal
A498 renal = tested on: A498 renal
A549 NSCLC = tested on: A549 NSCLC
ACHN renal = tested on: ACHN renal
BT-549 breast = tested on: BT-549 breast
CAKI-1 renal = tested on: CAKI-1 renal
CCRF-CEM leukemia = tested on: CCRF-CEM leukemia
COLO 205 colon = tested on: COLO 205 colon
DU-145 prostate = tested on: DU-145 prostate
EKVX NSCLC = tested on: EKVX NSCLC
HCC-2998 colon = tested on: HCC-2998 colon
HCT-116 colon = tested on: HCT-116 colon
HCT-15 colon = tested on: HCT-15 colon
HL-60(TB) leukemia = tested on: HL-60(TB) leukemia
HOP-62 NSCLC = tested on: HOP-62 NSCLC
HOP-92 NSCLC = tested on: HOP-92 NSCLC
HS 578T breast = tested on: HS 578T breast
HT29 colon = tested on: HT29 colon
IGROV1 ovarian = tested on: IGROV1 ovarian
K-562 leukemia = tested on: K-562 leukemia
KM12 colon = tested on: KM12 colon
LOX IMVI melanoma = tested on: LOX IMVI melanoma
M14 melanoma = tested on: M14 melanoma
MALME-3M melanoma = tested on: MALME-3M melanoma
MCF7 breast = tested on: MCF7 breast
MDA-MB-231 breast = tested on: MDA-MB-231 breast
MDA-MB-435 = tested on: MDA-MB-435
MOLT-4 leukemia = tested on: MOLT-4 leukemia
NCI-H226 lung = tested on: NCI-H226 lung

Question: How did the GI50 (786-0 renal) turn out when `O=C(CNc1c(Cl)cccc1Cl)Nc1ccc(-c2nc3ccccc3s2)cc1` was run?
Answer: 1.78 µM

Question: And the TGI (786-0 renal)?
Answer: 3.76 µM

Question: What about the GI50 (A498 renal) of the same compound?
Answer: 8.93 µM

Question: And the TGI (A498 renal)?
Answer: 23.4 µM

Question: And the GI50 (A549 NSCLC)?
Answer: 5.83 µM

Question: What about the TGI (A549 NSCLC) of the same compound?
Answer: 26.6 µM

Question: What about the GI50 (ACHN renal) of the same compound?
Answer: 1.97 µM

Question: What about the TGI (ACHN renal) of the same compound?
Answer: 3.93 µM

Question: What about the GI50 (BT-549 breast) of the same compound?
Answer: 1.72 µM

Question: What about the TGI (BT-549 breast) of the same compound?
Answer: 4.64 µM

Question: And the GI50 (CAKI-1 renal)?
Answer: 2.26 µM

Question: What about the TGI (CAKI-1 renal) of the same compound?
Answer: 5.79 µM

Question: And the GI50 (CCRF-CEM leukemia)?
Answer: 0.485 µM

Question: What about the GI50 (COLO 205 colon) of the same compound?
Answer: 2.33 µM

Question: What about the TGI (COLO 205 colon) of the same compound?
Answer: 4.81 µM

Question: What about the GI50 (DU-145 prostate) of the same compound?
Answer: 3.41 µM

Question: And the TGI (DU-145 prostate)?
Answer: 10.7 µM

Question: What about the GI50 (EKVX NSCLC) of the same compound?
Answer: 11.2 µM

Question: What about the TGI (EKVX NSCLC) of the same compound?
Answer: 28.2 µM

Question: What about the GI50 (HCC-2998 colon) of the same compound?
Answer: 2.11 µM

Question: And the TGI (HCC-2998 colon)?
Answer: 4.29 µM

Question: What about the GI50 (HCT-116 colon) of the same compound?
Answer: 1.98 µM

Question: And the TGI (HCT-116 colon)?
Answer: 4.93 µM

Question: What about the GI50 (HCT-15 colon) of the same compound?
Answer: 1.78 µM

Question: And the TGI (HCT-15 colon)?
Answer: 5.28 µM

Question: What about the GI50 (HL-60(TB) leukemia) of the same compound?
Answer: 2.37 µM

Question: And the TGI (HL-60(TB) leukemia)?
Answer: 7.5 µM

Question: And the GI50 (HOP-62 NSCLC)?
Answer: 6.8 µM

Question: And the TGI (HOP-62 NSCLC)?
Answer: 21.3 µM

Question: What about the GI50 (HOP-92 NSCLC) of the same compound?
Answer: 1.66 µM

Question: And the TGI (HOP-92 NSCLC)?
Answer: 4.45 µM

Question: What about the GI50 (HS 578T breast) of the same compound?
Answer: 5.11 µM

Question: And the TGI (HS 578T breast)?
Answer: 67.8 µM

Question: And the GI50 (HT29 colon)?
Answer: 2.16 µM

Question: What about the TGI (HT29 colon) of the same compound?
Answer: 4.76 µM

Question: What about the GI50 (IGROV1 ovarian) of the same compound?
Answer: 2.3 µM

Question: And the TGI (IGROV1 ovarian)?
Answer: 5.85 µM

Question: And the GI50 (K-562 leukemia)?
Answer: 1.24 µM

Question: What about the TGI (K-562 leukemia) of the same compound?
Answer: > 33.9 µM

Question: And the GI50 (KM12 colon)?
Answer: 2.62 µM

Question: And the TGI (KM12 colon)?
Answer: 6.94 µM

Question: What about the GI50 (LOX IMVI melanoma) of the same compound?
Answer: 1.39 µM

Question: What about the TGI (LOX IMVI melanoma) of the same compound?
Answer: 2.88 µM

Question: And the GI50 (M14 melanoma)?
Answer: 2.05 µM

Question: And the TGI (M14 melanoma)?
Answer: 5.52 µM

Question: And the GI50 (MALME-3M melanoma)?
Answer: 1.85 µM

Question: And the TGI (MALME-3M melanoma)?
Answer: 3.75 µM

Question: What about the GI50 (MCF7 breast) of the same compound?
Answer: 0.0913 µM

Question: What about the TGI (MCF7 breast) of the same compound?
Answer: 5.7 µM

Question: What about the GI50 (MDA-MB-231 breast) of the same compound?
Answer: 2.67 µM

Question: And the TGI (MDA-MB-231 breast)?
Answer: 7.31 µM

Question: What about the GI50 (MDA-MB-435) of the same compound?
Answer: 2.64 µM

Question: And the TGI (MDA-MB-435)?
Answer: 10.9 µM

Question: And the GI50 (MOLT-4 leukemia)?
Answer: 0.666 µM

Question: And the TGI (MOLT-4 leukemia)?
Answer: > 27.3 µM

Question: What about the GI50 (NCI-H226 lung) of the same compound?
Answer: 2.17 µM

Question: What about the TGI (NCI-H226 lung) of the same compound?
Answer: 5.72 µM
